This is an account of results in patent US5866570A, “Treatment of vascular leakage and related syndrome such as septic shock by administration of metalloproteinase inhibitors” (Wisconsin Alumni Research Foundation, priority 1994, dated 1999).

pIC50: −log10 of the molar value. Where only a bound is given, the exact number is not on record here.

Data set [1] concerns HT-1080 cells (human fibrosarcoma). The data set is described as follows: in vitro invasion assay through matrigel (Transwell). Format: cell-based. The method, then:
Razoxane, various bis(hydroxylated)(2,6-dioxopiperazine)s, and various hydrophobic analogs were tested in an in vitro assay for inhibition of tumor cell penetration of a reconstituted basement membrane, matrigel, isolated from the Englegbreth-Holm-Swarm (EHS) tumor (disclosed in Kleinman et al., Biochem. (1982), 24, 6188-6193) first described by Albini et al, Cancer Res. (1987) 47, 3234-3245. An 8 μm pore filter coated with matrigel separates a lower compartment containing a chemoattractant and an upper compartment containing the cells and test compound. In particular, the following compounds were tested: razoxane, (1α, 2α, 4α, 5α)-4,4'-(4,5-dihydroxy-1,2-cyclohexanediyl)bis(2,6-piperazinedione); (1α, 2α, 4β, 5β)-4,4'-(4,5-dihydroxy-1,2-cyclohexanediyl)bis(2,6-piperazinedione);(1β, 2α,4α,5α)-4,4'-(4,5-dihydroxy-1,2-cyclohexanediyl)bis(2,6-piperazinedione); (1β, 2α, 4α,5β)-4,4'-(4,5-dihydroxy-1,2-cyclohexanediyl)bis(2,6piperazinedione); (1α, 2β, 4α,5β)-4,4'-(4,5-dihydroxy-1,2cyclohexanediyl)bis(2,6-piperazinedione); N,N'-cyclohexane-1,2-diylbis[N(2-ethoxy-2-oxoethyl)]glycine; N,N'-4-cyclohexene-1,2-diylbis[N-(2-ethoxy-2-oxoethyl)-glycine ester; (3aα, 5β, 6β, 7aα)-4,4'-(hexahydro-2,2-dimethyl1,3-benzodioxole-5,6-diyl)bis(2,6-piperazinedione); (3aα, 5α, 6α, 7aα)-4,4'-(hexahydro-2,2-dimethyl-1,3-benzodioxole-5,6-diyl)bis(2,6- piperazinedione); (3aα, 5α, 6β, 7aα)-4,4'-(hexahydro-2,2-dimethyl-1,3-benzodioxole-5,6-diyl)bis-2,6- piperazinedione; (3aα, 5β, 6α, 7aβ)-4,4'-(hexahydro-2,2dimethyl-1,3-benzodioxole-5,6-diyl)bis(2,6-piperazinedione); and (3aα, 5α, 6β, 7aβ)-4,4'-(hexahydro-2,2-dimethyl-1,3-benzodioxole-5,6-diyl) bis(2,6piperazinedione). Metastatic cells are able to degrade the basement membrane protein barrier and migrate through the pores of the filter whereas non-metastatic cells remain on the upper surface. The cells that pass to the under side of the filter are then counted under a microscope. […] Variations of this assay have been used to correlate this in vitro invasion with metastatic potential in vivo (Albini et al. (Id.); Hendrix et al. Cancer Letters (1987); 38, 127-247; Repesh L. A., Invasion Metastasis (1989) 9, 192-208 to select for more highly invasive cells (Teranova et al., Proc. Nat. Acad. Sci., (1986), 83, 465, 464; Tullberg et al., Invasion Metastasis, (1989), 9, 13-26; Sefer et al., Biotechniques, (1990), 9, 324-331), and to test compounds for inhibition (Nakajima et al., Cancer Res. (1989), 49, 1698-1756).
This method has been improved to increase the number of assays which may be performed and analyzed per day. In particular, such improvement comprises the use of disposable Transwells (Costar) units described by Repesh et al., Invasion Metastasis, (1989), 9, 192-208, which consist of an 8 μm pore filter attached to an insert that fits in a 24 well culture plate. Matrigel concentration is titrated from zero to complete inhibition of motility of each invasive cell line used in the assay and for each batch of matrigel. The matrigel concentration which yields 50% or greater inhibition of motility in a 6 hr assay (usually from 15 to 50 μg of protein per filter) is chosen for determination of invasion. Motility of cells through the 8 μm filters is not by passive diffusion since the pore size is smaller than the cells, and is determined in the same chamber in the absence of matrigel. Motility is stimulated two-fold by the presence of fibroblast conditioned medium (3T3 cells) as a chemoattractant (data not shown). The cell lines used are HT-1080, a human fibrosarcoma, and MDA-MB-231, a human breast carcinoma (both available from the American Type Tissue Culture). These cell lines express both the 72 kD and the 92 kD collagenase type IV as determined by zymography (data not shown).
For inhibition studies, 5×10^5 cells are plated in 200 μl of DMEM+0.1% BSA+the inhibitor (or appropriate solvent control) into the upper chamber of the Transwell. […]

Another data set relates to mouse L cell. The settings on record: l cells; read-out: ID50 inhibition of colony formation; cited from earlier work.
The next data set concerns L1210 leukemia. The settings on record: 13 doses at 30 mg/kg; cited from earlier work.
The test system of a further data set is OVCAR-3 cells. The data set is described as follows: OVCAR-3 human ovarian cancer model in nude mice. Format: in vivo. Particulars: 30 mg/kg i.p., one dose/day 5 consecutive days/week, from 24 hours before 20 million cells i.p. The protocol: Dose and Schedule--Razoxane was suspended in sterile 1% CMC (carboxymethyl cellulose) 0.9% NaCl by sonication in a water bath. Mice received 30 mg/kg drug in 10 μl/g CMC per i.p. dose beginning 24 hours prior to cell implantation. Each mouse received one dose/day i.p. for 5 consecutive days with 2 days of recovery. Treatment continued until mouse death or sacrifice.
OVCAR-3 cells--were received from Dr. Tom Hamilton and are maintained by passage of ascites directly from the mouse. The ascites is harvested from the mouse by rinsing the peritoneal cavity with HBSS, treated briefly with Dispase to dissociate clumps, centrifuged, counted, resuspended in HBSS and 20 million cells injected i.p. per mouse.
Mice--HSD nu/nu female mice 6 weeks old (18-22 g) are weighed, tagged with a metal ear clip, and randomized for treatment or control groups. Mice are weighed daily and the dose of drug or vehicle is calculated.
Visible ascites appears around day 14 with small solid tumors at the sites of injections. The mice swell with hemorrhagic ascites prior to death. At necropsy mice contain massive invasive carcinomatosis obliterating most of the normal organs of the peritoneal cavity with significant metastasis to the lungs. A 25% increase in mean/median survival time with drug treatment is considered significant in this model.

Another data set relates to mouse-embryo fibroblasts. Particulars: cited from earlier work.
The next data set deals with V-79A fibroblasts. Particulars: tissue culture; cited from earlier work.
The test system of a further data set is BALB/C mice. The data set is described as follows: septic shock induced by galactosamine and endotoxin (E. coli 026:B6). Format: in vivo. The method, then:
Ten BALB/C mine were injected i.p. with 18 mg of D-galactosamine and 1 μg of endotoxin. Three units of heparin were given i.v. and 10 units heparin were given subcutaneously at 30 min to prevent intravascular coagulation.
Ten BALB/C mice were treated with razoxane (100 μg/g body weight i.p., dissolved in 1% carboxymethyl-cellulose in normal saline). The mice were then injected i.p. with 18 mg of D-galactosamine and 1 μg of endotoxin. Three units of heparin were given i.v. and 10 units heparin were given subcutaneously to each mice at 30 min.

Where [2] appears, read: galactosamine + endotoxin1 (E. coli 026:B6).

The inhibition is the percentage by which the read-out fell short of the control. With `CC1(C)O[C@H]2C[C@H](N3CC(=O)NC(=O)C3)[C@@H](N3CC(=O)NC(=O)C3)C[C@@H]2O1` (relative stereo) [Compound 80, (3aα, 5β, 6α, 7aβ)-4,4'-(hexahydro-2,2-dimethyl-1,3-benzodioxole-5,6-diyl)bis(2,6-piperazinedione)], in data set [1] (Homo sapiens, HT-1080, at 125 μM, 6 hour assay, read-out: maximum inhibition of invasion), the inhibition at 125 µM amounted to 62%. Further, the inhibition of invasion entry in data set [1] (preliminary screen) is “inhibit invasion”. In data set [1] (preliminary screen, no matrigel), the “effect on cell motility” value is reported as “without inhibiting cell motility”.

`CC(CN1CC(=O)NC(=O)C1)N1CC(=O)NC(=O)C1` (stereo not shown) [razoxane]: in data set [1] (from 250 μM to 1 mM), the “consistent inhibition of invasion without effect on motility” value is recorded as “could not be demonstrated”. In the data set with mouse L cell, the pIC50 was 5.52. Besides, in the data set with L1210 leukemia, the “increase in survival time” value is recorded as 137%. For the same compound, the “difference in the survival time between treated and control mice” value in the data set on OVCAR-3 cells is recorded as greater than 33%. For the same compound, the “IC50, inhibition of [3H]thymidine incorporation” value in the data set with mouse-embryo fibroblasts was 0.5 µg/mL. The cytotoxic activity entry in the data set on V-79A fibroblasts is listed as “has cytoxic activity”. Further, in the data set with BALB/C mice (setting [2]), the “Survival/Total Ratio after 24 h” value is reported as 2/10, the “Survival/Total Ratio after 48 h” value is recorded as 2/10 and the “Survival/Total Ratio after 72 h” value was 2/10. The “mice surviving more than 24 h” value in the data set on BALB/C mice (razoxane 100 μg/g i.p. before 18 mg D-galactosamine + 1 μg endotoxin i.p., heparin) is on record as “Two out of ten”.
